According to patent US20260297109A1, “COMPOUNDS AS SUMO ACTIVATING ENZYME INHIBITORS” (WIGEN BIOMEDICINE TECHNOLOGY (SHANGHAI) CO., LTD., priority 2022, published 2026):

These compounds were tested against T1, SAE (Homo sapiens, UniProt Q9UBT2) (assay: SUMO IF: in vitro inhibitory activity assay against SAE in HCT116 cells (SUMO-2/3 immunofluorescence)). Details: class symbols, 6 h at 37° C.
T1 construct: endogenous in cells; host or cells: HCT116
T1 sequence (Q9UBT2 1-640): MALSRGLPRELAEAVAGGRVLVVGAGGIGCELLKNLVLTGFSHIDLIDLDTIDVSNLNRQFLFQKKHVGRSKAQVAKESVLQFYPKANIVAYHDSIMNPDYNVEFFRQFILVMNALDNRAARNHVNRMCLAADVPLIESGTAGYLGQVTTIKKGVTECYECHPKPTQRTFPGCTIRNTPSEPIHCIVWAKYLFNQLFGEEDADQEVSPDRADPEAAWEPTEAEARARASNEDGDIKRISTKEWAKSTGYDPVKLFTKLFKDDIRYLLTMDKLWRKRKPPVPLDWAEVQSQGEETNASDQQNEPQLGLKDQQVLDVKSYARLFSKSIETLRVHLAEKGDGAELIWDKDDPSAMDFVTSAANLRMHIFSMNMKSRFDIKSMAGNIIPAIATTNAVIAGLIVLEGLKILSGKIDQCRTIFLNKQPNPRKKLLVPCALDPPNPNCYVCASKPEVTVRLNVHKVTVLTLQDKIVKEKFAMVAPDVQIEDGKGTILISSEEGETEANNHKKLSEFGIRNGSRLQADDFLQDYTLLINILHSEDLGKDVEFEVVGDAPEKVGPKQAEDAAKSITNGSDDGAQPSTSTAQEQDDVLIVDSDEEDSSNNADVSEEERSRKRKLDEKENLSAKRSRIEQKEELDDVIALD
T1 sequence (Q9UBE0 1-346): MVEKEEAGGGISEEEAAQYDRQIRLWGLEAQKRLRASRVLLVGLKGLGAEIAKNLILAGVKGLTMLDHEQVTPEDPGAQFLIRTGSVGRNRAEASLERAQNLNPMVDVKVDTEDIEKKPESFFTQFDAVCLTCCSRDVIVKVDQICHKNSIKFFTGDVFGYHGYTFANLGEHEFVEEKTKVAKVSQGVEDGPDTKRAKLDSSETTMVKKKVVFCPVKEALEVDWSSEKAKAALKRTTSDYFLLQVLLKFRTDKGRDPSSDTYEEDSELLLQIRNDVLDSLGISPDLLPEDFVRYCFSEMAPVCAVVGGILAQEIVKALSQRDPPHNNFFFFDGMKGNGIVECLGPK
Type: cell-based
Protocol: Biological Example 1. In Vitro Inhibitory Activity Assay of Compounds of the Present Disclosure Against SAE
HCT116 cells were seeded into a 96-well black transparent bottom plate at about 20000/well with 90 μL per well. The cells were incubated at 37° C. overnight for 24 h. The test compounds were 10-fold diluted to give a final concentration, and 10 μL of the diluted compounds was added to each well of the cell culture plate. The mixture was incubated at 37° C. for 6 h. The cells were then washed gently, the culture medium was discarded, and the cells were washed once with 200 μL of 0.1% PBST. 50 μL of 4% PFA was added to each well, and the cells were immobilized at room temperature for 20 min, and then washed with PBS 2-3 times. 50 μL of 0.2% Triton X-100 was added to each well, and the cells were left to stand at room temperature for 15 min and washed with 0.1% PBST 3 times. 100 μL of 3% BSA (0.6 g BSA+20 mL PBS) was added to each well, and the mixture was blocked at 37° C. for 30 min. After the blocking was completed, the liquid was removed and a primary antibody (SUMO-2/3 (18H8) Rabbit mAb, 1:400 dilution) was prepared with 1% BSA. 30 μL of the diluted primary antibody was added to each well, and the mixture was incubated at 4° C. overnight. The cells were washed 3 times with 200 μL of 0.1% PBST. A FITC secondary antibody (Fluorescein (FITC)-conjugated Affinipure Goat Anti-Rabbit IgG (H+L), 1:300 dilution) was further prepared with 1% BSA, and 40 μL of the diluted secondary antibody was added to each well. The mixture was incubated at room temperature in the dark for 2 h, and then the cells were washed 4 times with 0.1% PBST. The fluorescence signal of the sample was detected and compared to the DMSO group, and the inhibition rate and IC50 were calculated.
Compound `Cc1sc(C(=O)c2cncnc2N[C@H]2C[C@H](O)[C@@H](COS(N)(=O)=O)[C@@H]2F)cc1C1NCCc2ccccc21` (stereo partly drawn) [Compound 229] has an IC50 of over 200 nM. `Cc1sc(C(=O)c2cncnc2N[C@H]2C[C@H](O)[C@@H](COS(N)(=O)=O)[C@@H]2F)cc1[C@@H]1NCCc2ccccc21` [Compound 230] gave an IC50 of 50 to 200 nM. In the case of `Cc1sc(C(=O)c2cncnc2N[C@H]2C[C@H](O)[C@@H](COS(N)(=O)=O)[C@@H]2F)cc1[C@H]1NCCc2ccccc21` [Compound 231], the IC50 is reported as over 200 nM. For `Cc1sc(C(=O)c2cncnc2N[C@H]2C[C@H](O)[C@@H](COS(N)(=O)=O)[C@@H]2F)cc1C1NCCc2ccc(F)cc21` (stereo partly drawn) [Compound 235], the IC50 was over 200 nM. Work on `Cc1sc(C(=O)c2cncnc2N[C@H]2C[C@H](O)[C@@H](COS(N)(=O)=O)[C@@H]2F)cc1C1NCCc2ccc(C#N)cc21` (stereo partly drawn) [Compound 238] yielded an IC50 of over 200 nM. Compound `Cc1sc(C(=O)c2cncnc2N[C@H]2C[C@H](O)[C@@H](COS(N)(=O)=O)[C@@H]2F)cc1[C@@H]1NCCc2ccc(C#N)cc21` [Compound 239] has an IC50 of 50 to 200 nM. Work on `Cc1sc(C(=O)c2cncnc2N[C@H]2C[C@H](O)[C@@H](COS(N)(=O)=O)[C@@H]2F)cc1[C@H]1NCCc2ccc(C#N)cc21` [Compound 240] yielded an IC50 of over 200 nM. Compound `Cc1ccc2c(c1)C(c1cc(C(=O)c3cncnc3N[C@H]3C[C@H](O)[C@@H](COS(N)(=O)=O)[C@@H]3F)sc1C)NCC2` (stereo partly drawn) [Compound 241] has an IC50 of 50 to 200 nM. Compound `Cc1sc(C(=O)c2cncnc2N[C@H]2C[C@H](O)[C@@H](COS(N)(=O)=O)[C@@H]2F)cc1C1NCCc2ccc(C3CC3)cc21` (stereo partly drawn) [Compound 242] has an IC50 of 50 to 200 nM. Work on `COc1ccc2c(c1)C(c1cc(C(=O)c3cncnc3N[C@H]3C[C@H](O)[C@@H](COS(N)(=O)=O)[C@@H]3F)sc1C)NCC2` (stereo partly drawn) [Compound 243] yielded an IC50 of over 200 nM. In the case of `Cc1sc(C(=O)c2cncnc2N[C@H]2C[C@H](O)[C@@H](COS(N)(=O)=O)[C@@H]2F)cc1C1NCCc2ccc(C(F)(F)F)cc21` (stereo partly drawn) [Compound 244], the IC50 is reported as 50 to 200 nM. For `Cc1sc(C(=O)c2cncnc2N[C@H]2C[C@H](O)[C@@H](COS(N)(=O)=O)[C@@H]2F)cc1C1NCCc2cc(F)c(F)cc21` (stereo partly drawn) [Compound 245], the IC50 was 50 to 200 nM. `Cc1sc(C(=O)c2cncnc2N[C@H]2C[C@H](O)[C@@H](COS(N)(=O)=O)[C@@H]2F)cc1C1NCCc2cc(F)c(Cl)cc21` (stereo partly drawn) [Compound 246] showed an IC50 of 50 to 200 nM. With `Cc1sc(C(=O)c2cncnc2N[C@H]2C[C@H](O)[C@@H](COS(N)(=O)=O)[C@H]2F)cc1C1NCCc2cc(Cl)c(Cl)cc21` (stereo partly drawn) [Compound 247] the IC50 was 50 to 200 nM. `Cc1cc2c(cc1Cl)C(c1cc(C(=O)c3cncnc3N[C@H]3C[C@H](O)[C@@H](COS(N)(=O)=O)[C@@H]3F)sc1C)NCC2` (stereo partly drawn) [Compound 248] gave an IC50 of 50 to 200 nM. `Cc1sc(C(=O)c2cncnc2N[C@H]2C[C@H](O)[C@@H](COS(N)(=O)=O)[C@@H]2F)cc1C1NCCc2cc(C#N)c(Cl)cc21` (stereo partly drawn) [Compound 249] was tested, and the IC50 was 50 to 200 nM. `COc1cc2c(cc1Cl)C(c1cc(C(=O)c3cncnc3N[C@H]3C[C@H](O)[C@@H](COS(N)(=O)=O)[C@@H]3F)sc1C)NCC2` (stereo partly drawn) [Compound 250] gave an IC50 of 50 to 200 nM. Compound `Cc1sc(C(=O)c2cncnc2N[C@H]2C[C@H](O)[C@@H](COS(N)(=O)=O)[C@@H]2F)cc1C1NCCc2cc(F)c(Cl)c(F)c21` (stereo partly drawn) [Compound 251] has an IC50 of 50 to 200 nM. `Cc1sc(C(=O)c2cncnc2N[C@H]2C[C@H](O)[C@@H](COS(N)(=O)=O)[C@@H]2F)cc1C1NCCc2cc(Cl)c(F)cc21` (stereo partly drawn) [Compound 252] showed an IC50 of 50 to 200 nM. For `Cc1sc(C(=O)c2cncnc2N[C@H]2C[C@H](O)[C@@H](COS(N)(=O)=O)[C@@H]2F)cc1C1NCCc2ccncc21` (stereo partly drawn) [Compound 253], the IC50 was 50 to 200 nM. Work on `Cc1sc(C(=O)c2cncnc2N[C@H]2C[C@H](O)[C@@H](COS(N)(=O)=O)[C@@H]2F)cc1C1NCCc2cc(Cl)ncc21` (stereo partly drawn) [Compound 254] yielded an IC50 of 50 to 200 nM. `Cc1sc(C(=O)c2cncnc2N[C@H]2C[C@H](O)[C@@H](COS(N)(=O)=O)[C@@H]2F)cc1C1NCCc2cnc(Cl)cc21` (stereo partly drawn) [Compound 255] showed an IC50 of 50 to 200 nM. Compound `Cc1sc(C(=O)c2cncnc2N[C@H]2C[C@H](O)[C@@H](COS(N)(=O)=O)[C@@H]2F)cc1C1OCc2ccc(Cl)cc21` (stereo partly drawn) [Compound 256] has an IC50 of over 200 nM. Work on `Cc1sc(C(=O)c2cncnc2N[C@H]2C[C@H](O)[C@@H](COS(N)(=O)=O)[C@@H]2F)cc1C1NCc2ccc(Cl)cc21` (stereo partly drawn) [Compound 257] yielded an IC50 of over 200 nM. With `NS(=O)(=O)OC[C@H]1[C@H](F)[C@@H](Nc2ncncc2C(=O)c2cc(C3NCCc4ccc(Cl)cc43)c(Cl)s2)C[C@@H]1O` (stereo partly drawn) [Compound 258] the IC50 was 50 to 200 nM. In the case of `C#Cc1sc(C(=O)c2cncnc2N[C@H]2C[C@H](O)[C@@H](COS(N)(=O)=O)[C@@H]2F)cc1C1NCCc2ccc(Cl)cc21` (stereo partly drawn) [Compound 259], the IC50 is reported as 50 to 200 nM. `CCc1sc(C(=O)c2cncnc2N[C@H]2C[C@H](O)[C@@H](COS(N)(=O)=O)[C@@H]2F)cc1C1NCCc2ccc(Cl)cc21` (stereo partly drawn) [Compound 260] showed an IC50 of 50 to 200 nM. Compound `C=Cc1sc(C(=O)c2cncnc2N[C@H]2C[C@H](O)[C@@H](COS(N)(=O)=O)[C@@H]2F)cc1C1NCCc2ccc(Cl)cc21` (stereo partly drawn) [Compound 261] has an IC50 of 50 to 200 nM. Compound `COc1sc(C(=O)c2cncnc2N[C@H]2C[C@H](O)[C@@H](COS(N)(=O)=O)[C@@H]2F)cc1C1NCCc2ccc(Cl)cc21` (stereo partly drawn) [Compound 262] has an IC50 of 50 to 200 nM. For `CN(C)c1sc(C(=O)c2cncnc2N[C@H]2C[C@H](O)[C@@H](COS(N)(=O)=O)[C@@H]2F)cc1C1NCCc2ccc(Cl)cc21` (stereo partly drawn) [Compound 263], the IC50 was 50 to 200 nM. Compound `Nc1sc(C(=O)c2cncnc2N[C@H]2C[C@H](O)[C@@H](COS(N)(=O)=O)[C@@H]2F)cc1C1NCCc2ccc(Cl)cc21` (stereo partly drawn) [Compound 264] has an IC50 of 50 to 200 nM. `Cc1sc(C(=O)c2cncnc2N[C@H]2C[C@H](O)[C@@H](COS(N)(=O)=O)[C@@H]2F)cc1C1NCC2(CC2)c2ccc(Cl)cc21` (stereo partly drawn) [Compound 265] was tested, and the IC50 was 50 to 200 nM. Compound `Cc1sc(C(=O)c2cncnc2N[C@H]2C[C@H](O)[C@@H](COS(N)(=O)=O)[C@@H]2F)cc1C1NC2(CC2)Cc2ccc(Cl)cc21` (stereo partly drawn) [Compound 266] has an IC50 of 50 to 200 nM. `Cc1sc(C(=O)c2cncnc2N[C@H]2C[C@H](O)[C@@H](COS(N)(=O)=O)[C@@H]2F)cc1C1NC=Cc2ccc(Cl)cc21` (stereo partly drawn) [Compound 267] showed an IC50 of 50 to 200 nM. In the case of `NS(=O)(=O)OC[C@H]1[C@H](F)[C@@H](Nc2ncncc2C(=O)c2cc(C3NCCc4ccc(Cl)cc43)c(C(F)(F)F)s2)C[C@@H]1O` (stereo partly drawn) [Compound 268], the IC50 is reported as 50 to 200 nM. For `[2H]C1(c2cc(C(=O)c3cncnc3N[C@H]3C[C@H](O)[C@@H](COS(N)(=O)=O)[C@@H]3F)sc2C)NCCc2ccc(Cl)cc21` (stereo partly drawn) [Compound 269], the IC50 was 50 to 200 nM. For `Cc1sc(C(=O)c2cncnc2N[C@H]2C[C@H](O)[C@@H](COS(N)(=O)=O)[C@@H]2F)cc1C1(C)NCCc2ccc(Cl)cc21` (stereo partly drawn) [Compound 270], the IC50 was 50 to 200 nM. Compound `NS(=O)(=O)OC[C@H]1[C@H](F)[C@@H](Nc2ncncc2C(=O)c2cc3c(s2)CSCC32NCCc3ccccc32)C[C@@H]1O` (stereo partly drawn) [Compound 294] has an IC50 of over 200 nM. Work on `NS(=O)(=O)OC[C@H]1[C@H](F)[C@@H](Nc2ncncc2C(=O)c2cc3c(s2)CSC[C@@]32NCCc3ccccc32)C[C@@H]1O` [Compound 295] yielded an IC50 of over 200 nM.

Same assay, conditions: numeric values, 6 h at 37° C.
`Cc1sc(C(=O)c2cncnc2N[C@H]2C[C@H](O)[C@@H](COS(N)(=O)=O)[C@@H]2F)cc1[C@H]1NCCc2ccc(Cl)cc21` [Compound 234] was tested, and the IC50 was over 1000 nM. `Cc1sc(C(=O)c2cncnc2N[C@H]2C[C@H](O)[C@@H](COS(N)(=O)=O)[C@@H]2F)cc1[C@@H]1NCCc2ccc(F)cc21` [Compound 236] showed an IC50 of 73.1 nM. `Cc1sc(C(=O)c2cncnc2N[C@H]2C[C@H](O)[C@@H](COS(N)(=O)=O)[C@@H]2F)cc1[C@H]1NCCc2ccc(F)cc21` [Compound 237] gave an IC50 of over 1000 nM.
